Results from PubChem BioAssay (NCI).
Where “and” joins values, the source holds several entries; their conditions need not be identical. Identical values can stand only once.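 Cultured in 96-well plates, cells were exposed to test compound for 48 hours across five concentrations. GI50 = concentration required for 50% inhibition of growth. TGI denotes the concentration required for complete inhibition of growth.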

How the values were obtained:
Experiment in all cases: DTP human tumour cell line panel, 48 h
[1] = system: K-562 leukemia
[2] = system: SNB-19 CNS
[3] = system: RXF 393 renal
[4] = system: EKVX NSCLC
[5] = system: DLD-1 colon
[6] = system: M19-MEL melanoma
[7] = system: KM12 colon
[8] = system: MDA-MB-435
[9] = system: MCF7 breast
[10] = system: NCI/ADR-RES ovarian

Row | Compound | TGI [1] | TGI [2] [µM] | TGI [3] [µM] | TGI [4] [µM] | TGI [5] [µM] | TGI [6] [µM] | TGI [7] | GI50 [1] [µM] | GI50 [2] [µM] | GI50 [3] | GI50 [4] [µM] | GI50 [5] [µM] | GI50 [6] [µM] | GI50 [7] [µM] | GI50 [8] [µM] | TGI [8] [µM] | GI50 [9] [µM] | TGI [9] [µM] | GI50 [10] [µM] | TGI [10] [µM]
1 | CCOC(=O)C(C(=O)OCC)=C1N[C@H](C(=O)OCC)CS1 | > 100 µM | > 100 | > 100 | > 100 | > 100 | > 100 | > 100 µM |  |  |  |  |  |  |  |  |  |  |  |  | 
2 | CCCCCNC(=O)c1c(O)[nH]c(=S)[nH]c1=O | > 100 µM | > 100 |  |  |  | > 100 | > 100 µM |  |  |  |  |  |  |  |  |  |  |  |  | 
3 | O=C(c1nc2ccc(Cl)cc2[nH]c1=O)C(O)c1ccc2c(c1)OCO2 (configuration not stated) | > 100 µM |  | > 100 | > 100 | > 100 | > 100 | > 100 µM |  |  |  |  |  |  |  |  |  |  |  |  | 
4 | Cc1c(C(=O)/C=C/c2c(Cl)cccc2Cl)c(=O)n(-c2ccccc2)n1C |  | > 100 | 20.4 | > 100 |  | > 100 | 44.8 µM |  |  |  |  |  |  |  |  |  |  |  |  | 
5 | CC(=O)c1ccc(NC(=O)C(=O)C(C(=O)c2ccc(Cl)c(Cl)c2)C2OC(=O)c3ccccc32)cc1 (configuration not stated) | > 100 µM | > 100 | 17.4 | > 100 | 55.8 |  | 38.1 µM |  |  |  |  |  |  |  |  |  |  |  |  | 
6 | O=C(O)c1cccc2cccc(C(=O)O)c12.[Hg] | 15.5 µM | 29.7 | 32.3 | > 100 | 23 | 23.3 | 32.4 µM | 1.5 | 15.9 | 16.8 µM | > 100 | 8.42 | 10.4 | 18.3 |  |  |  |  |  | 
7 | CCOC(=O)N[C@@H]1C2CC(=O)C(O2)[C@@H]1OC (some centres not stated) | > 100 µM | > 100 | > 100 | > 100 | > 100 | > 100 | > 100 µM |  |  |  |  |  |  |  |  |  |  |  |  | 
8 | CCOC(=O)C(=O)Nc1c(C)cccc1C(C)C | > 100 µM | > 100 |  | > 100 | > 100 | > 100 | > 100 µM |  |  |  |  |  |  |  |  |  |  |  |  | 
9 | CCCCCCCCCCCCCCCCCC(=O)OCC(C[As](=O)(O)O)OC(=O)CCCCCCCCCCCCCCCCC (configuration not stated) | > 100 µM | 77.4 | 47 | > 100 | > 100 | > 100 | > 100 µM |  |  |  |  |  |  |  |  |  |  |  |  | 
10 | CCC[CH2][Sn]1([CH2]CCC)[O]CC(CN2CCOCC2)[O]1 (configuration not stated) | 9.16 µM | 19.6 | 3.31 | 11.9 | 16.8 | 17.3 | 22.5 µM | 2.43 | 7.65 | 1.65 µM | 2.18 | 4.46 | 3.99 | 10.4 |  |  |  |  |  | 
11 | CN(C)C1=NC2=S(SC(Nc3ccccc3)=N2)S1 (configuration not stated) | > 100 µM | 97.9 | > 100 | 38.5 | > 100 | > 100 | > 100 µM |  |  |  |  |  |  |  |  |  |  |  |  | 
12 | NCCCNCCSSC/C=C\CSSCCNCCCN | 62.3 µM and 65.1 µM | > 100 | > 100 | > 100 | > 100 | > 100 | 38.7 µM and 36.3 µM |  |  | 83.3 µM and 30.6 µM |  |  |  |  |  |  |  |  |  | 
13 | O=NN/C(=C1\Nc2ccc([N+](=O)[O-])cc2NC1=O)C(O)c1ccc([N+](=O)[O-])cc1 (configuration not stated) | > 100 µM | > 100 | > 100 |  | > 100 | > 100 | > 100 µM |  |  |  |  |  |  |  |  |  |  |  |  | 
14 | Cc1ccc(C(=O)C#Cc2c[nH]c(=O)[nH]c2=O)cc1 | 34.2 µM | 43 | 12.4 | 31.4 | 22.1 | 36.5 | 28.2 µM |  |  |  |  |  |  |  |  |  |  |  |  | 
15 | COc1cc(Nc2nc3cc(C(F)(F)F)ccc3nc2-c2ccccc2)cc(OC)c1OC | > 100 µM |  | 63.8 | > 100 | > 100 |  | > 100 µM |  |  |  |  |  |  |  |  |  |  |  |  | 
16 | CCCc1nc(NC#N)nc(C(=O)NC23CC4CC(CC(C4)C2)C3)c1C | > 100 µM | > 100 | > 100 | > 100 | > 100 | > 100 | > 100 µM |  |  |  |  |  |  |  |  |  |  |  |  | 
17 | Cc1cc2cc3cc(C)c(N)cc3[n+](C)c2cc1N | 9.47 µM | 12.4 | 4.33 | 14.1 |  |  | 4.29 µM | 1.64 | 1.13 | 0.584 µM | 1.36 |  |  | 1.1 | 2.21 | 6.42 | 0.476 | 6.08 | 5.56 | 23.4
18 | Cc1c(-c2nnc(-c3ccc(F)cc3)o2)nnn1-c1ccnc2c(C(F)(F)F)cccc12 | > 100 µM | 82.3 | 70.7 | > 100 |  |  | > 100 µM | 19.8 | 25.9 | 21.6 µM | 31.8 |  |  | 89.5 | 77.6 | > 100 | 20.9 | > 100 | 40.3 | > 100
19 | CC1OC(n2c3ccccc3c3c4c(c5c6ccccc6[nH]c5c32)C(=O)N(CCN2CCOCC2)C4=O)CC(O)C1O (configuration not stated) | 50 µM | 17.8 | 10.6 | 17.7 |  |  | 10.5 µM | 1.85 | 2.18 | 2.82 µM | 6.14 |  |  | 2.64 | 2.71 | 9.59 | 1.05 | 18 | 2.87 | 13.1
20 | CC1=NC(C(C)C)C(=O)O1 (configuration not stated) | > 100 µM | > 100 |  | > 100 | > 100 | > 100 | > 100 µM |  |  |  |  |  |  |  |  |  |  |  |  | 
21 | COC(=O)C(Cc1ccccc1)NC(=O)Cn1ccnc1[N+](=O)[O-] (configuration not stated) | > 100 µM | > 100 | > 100 | > 100 |  | > 100 | > 100 µM |  |  |  |  |  |  |  |  |  |  |  |  | 
22 | COc1ccc(NC(=O)CC(=O)N2N=C(N(CCC#N)c3cccc(C)c3)CC2c2ccccc2)cc1 (configuration not stated) | > 100 µM | > 100 | > 100 | > 100 | > 100 | > 100 | > 100 µM |  |  |  |  |  |  |  |  |  |  |  |  | 
23 | O=C(O)c1ccccc1-c1ccccc1C(=O)Nc1ccc2c(c1)[nH]c(=O)c1ccccc12 | > 100 µM | > 100 | > 100 | > 100 |  |  | > 100 µM |  |  |  |  |  |  |  |  | > 100 |  | > 100 |  | > 100
24 | Cn1ccnc1C(=O)/C=C/c1ccc(CC(=O)Nc2ccc(F)cc2)cc1 | > 25 µM | 7.02 | 7.97 | > 25 |  |  | 5.52 µM | 0.823 | 2.74 | 3.89 µM | 5.5 |  |  | 1.62 | 4.25 | 14.9 | 1.04 | 8.59 | 4.24 | > 25
